From patent US10287267B2, “Isoquinolin-3-yl carboxamides and preparation and use thereof” (Samumed, LLC, priority 2016, dated 2019)
Read-outs that look alike come from different tables or passages of the source.

Key:
[1] = biological target: recombinant DYRK1A kinase (Homo sapiens (Human), UniProt Q13627); assay: DYRK1A kinase assay (Ser/Thr 18 peptide Z-lyte FRET); assay type: biochemical; conditions: 30 μM ATP, 1 h room temperature;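 note: Read-out is the coumarin to fluorescein emission ratio, referenced to unphosphorylated (0%) and phosphorylated (100%) Ser/Thr 18 peptide controls, values from dose-response curves by non-linear regression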
[2] = test system: SW480 colon carcinoma cells; assay: Cell viability assay (CellTiter-Glo); assay type: cell-based, human; conditions: Homo sapiens; for EC50: 96 h, SW480 cells, CellTiter-Glo, four days incubation; for inhibition at 10 µM: SW480, read-out: percent inhibition at 10 μM
[3] = test system: Wnt pathway (Sp5-Luc reporter, TCF/LEF binding sites) in SW480 colon carcinoma cells; assay: Screening assay for Wnt activity: Sp5-Luc reporter gene assay; assay type: cell-based, human; conditions: Homo sapiens; for EC50: Sp5-Luc reporter, SW480 cells, 36 to 48 hours;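 for all read-outs here: firefly luciferase luminescence read in stably transduced SW480 cells carrying the Sp5 promoter reporter with eight TCF/LEF sites, compounds given in 0.1% DMSO final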
Method: The screening assay for Wnt activity is described as follows.
Following incubation, 15 μl of BriteLite Plus luminescence reagent (Perkin Elmer) was added to each well of the 384-well assay plates. The plates were placed on an orbital shaker for 2 min and then luminescence was quantified using the Envision (Perkin Elmer) plate reader.

IL-6 = IL-6 inhibition in LPS-stimulated human peripheral blood mononuclear cells (HTRF); assay type: cell-based; conditions: Homo sapiens, PBMC; for EC50: Table 9, huPBMCs, LPS 50 ng/mL, 22 hours, dose-response starting from 10 μM; for inhibition at 10 µM: read-out: percent value in parentheses beside EC50 >10 μM;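 for all read-outs here: IL-6 detected by HTRF with an XL665- and Cryptate-labelled anti-IL-6 antibody pair, samples run in duplicate, EC50 obtained from a four-parameter Levenberg-Marquardt curve fit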
Method: After 22 hour incubation, a mixture of anti-IL6 XL665 and anti-IL-6 Cryptate diluted in reconstitution buffer (Catalog #62IL6PEC, Cisbio Inc., Bedford, Mass.) was added to each well. […] All samples were processed in duplicate. […] EC50 was determined using software generated by Dotmatics Limited (Windhill Bishops Stortford Herts, UK) using the Levenberg-Marquardt 4 parameter fitting procedure with finite different gradients.

[4] = test system: α-smooth muscle actin (αSMA) positive LL29 cells; assay: Inhibition of fibrotic process: αSMA in TGF-β1 treated primary human fibroblasts from IPF patients; assay type: cell-based; conditions: Homo sapiens, Fibroblast; for EC50: 96 h, Table 8, LL29 fibroblasts from IPF patients, TGF-β1 20 ng/mL, 4 days, dose-response 10 μM to 0.94 nM; for inhibition at 10 µM: read-out: percent value in parentheses beside EC50 >10 μM;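 for all read-outs here: controls were TGF-β1 stimulated wells with DMSO vehicle (positive) and cells given DMSO alone (negative), cultured in F12 medium with 1% fetal bovine serum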
[5] = test system: Tau phosphorylation at Ser396 (pSer396); assay: Tau phosphorylation assay (pSer396 ELISA / western blot) in SH-SY5Y cells; assay type: cell-based, human; conditions: Homo sapiens, read-out: pSer396 Tau EC50;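 note: EC50 for reduction of Tau pSer396 in lysed cells, measured by colorimetric ELISA or chemiluminescent western blot, both using the same pSer396 antibody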
recombinant GSK3β kinase = recombinant GSK3β kinase (Homo sapiens (Human), UniProt P49841); assay: GSK3β kinase assay (Ser/Thr 09 peptide Z-lyte FRET); assay type: biochemical; conditions: 46 μM ATP, 1 h room temperature;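 note: kinase activity read as coumarin to fluorescein emission ratio, 11-point threefold dilutions from 10 µM to 0.0003 µM in duplicate, unphosphorylated and phosphorylated peptide as 0% and 100% controls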
Sequence of recombinant GSK3β kinase (P49841 whole entry): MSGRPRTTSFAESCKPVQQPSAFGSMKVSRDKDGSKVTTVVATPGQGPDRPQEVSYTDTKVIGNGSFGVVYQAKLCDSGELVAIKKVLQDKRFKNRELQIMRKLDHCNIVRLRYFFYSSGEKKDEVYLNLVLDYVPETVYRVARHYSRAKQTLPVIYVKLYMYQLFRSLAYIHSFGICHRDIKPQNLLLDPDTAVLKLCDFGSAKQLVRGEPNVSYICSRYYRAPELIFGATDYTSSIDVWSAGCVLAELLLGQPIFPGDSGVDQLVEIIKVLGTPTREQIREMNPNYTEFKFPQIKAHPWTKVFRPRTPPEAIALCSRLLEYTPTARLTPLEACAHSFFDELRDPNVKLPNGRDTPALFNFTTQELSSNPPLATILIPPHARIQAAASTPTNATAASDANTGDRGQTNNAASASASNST

[6] = SH-SY5Y cells, overnight (16-18 h) exposure

SMILES: Cn1cc(-c2ccc3cnc(NC(=O)C4CCN(Cc5cnccn5)CC4)cc3c2)cn1 [Compound 1004, N-(6-(1-Methyl-1H-pyrazol-4-yl)isoquinolin-3-yl)-1-(pyrazin-2-ylmethyl)piperidine-4-carboxamide]
- EC50 [1]: 2 nM
- EC50 [2]: 678 nM
- EC50 [3]: 618 nM
- EC50 (IL-6): 1180 nM
- EC50 [4]: 5040 nM
- EC50 [5, 6]: 667 nM
- EC50 (recombinant GSK3β kinase): 37 nM

SMILES: Cn1cc(-c2ccc3cnc(NC(=O)C4CC4)cc3c2)nn1 [Compound 433, N-(6-(1-Methyl-1H-1,2,3-triazol-4-yl)isoquinolin-3-yl) cyclopropanecarboxamide]
- EC50 [1]: 1.9 nM
- EC50 [2]: 615 nM
- EC50 [3]: 191 nM
- EC50 (IL-6): 411 nM
- EC50 [4]: 52 nM
- EC50 [5, 6]: 32 nM
- EC50 (recombinant GSK3β kinase): 1 nM

SMILES: Cn1cc(-c2ccc3cnc(NC(=O)[C@H]4CC[C@H](N5CCOCC5)CC4)cc3c2)cn1 [Compound 6, trans-N-(6-(1-Methyl-1H-pyrazol-4-yl)isoquinolin-3-yl)-4-morpholinocyclohexane-1-carboxamide]
- EC50 [1]: 1.3 nM
- EC50 [2]: 1260 nM
- EC50 [3]: 1110 nM
- EC50 (IL-6): 1290 nM
- EC50 [4]: > 10000 nM
- inhibition at 10 µM [4]: 45.6%
- EC50 [5, 6]: 475 nM
- EC50 (recombinant GSK3β kinase): 65 nM

SMILES: C[C@@H]1CN(CC(=O)Nc2cc3cc(-c4cnn(C)c4)ccc3cn2)C[C@H](C)O1 [Compound 344, 2-((2R,6S)-2,6-Dimethylmorpholino)-N-(6-(1-methyl-1H-pyrazol-4-yl)isoquinolin-3-yl)acetamide]
- EC50 [1]: 10.5 nM
- EC50 [2]: 7680 nM
- EC50 [3]: 5470 nM
- EC50 (IL-6): 9130 nM
- EC50 [4]: > 10000 nM
- inhibition at 10 µM [4]: 24.3%
- EC50 [5, 6]: 3500 nM
- EC50 (recombinant GSK3β kinase): 175 nM

SMILES: CN1CCn2c(-c3ccc4cnc(NC(=O)C5CC5)cc4c3)cnc2C1 [Compound 266, N-(6-(7-Methyl-5,6,7,8-tetrahydroimidazo[1,2-a]pyrazin-3-yl)isoquinolin-3-yl)cyclopropanecarboxamide]
- EC50 [1]: 17.4 nM
- EC50 [2]: 6320 nM
- EC50 [3]: 2440 nM
- EC50 (IL-6): 1930 nM
- EC50 [4]: 697 nM
- EC50 [5, 6]: 1200 nM
- EC50 (recombinant GSK3β kinase): 38 nM

SMILES: CN1CCC(N2CCC(C(=O)Nc3cc4cc(-c5cn(C)nn5)ccc4cn3)CC2)CC1 [Compound 477, 1′-Methyl-N-(6-(1-methyl-1H-1,2,3-triazol-4-yl)isoquinolin-3-yl)-[1,4′-bipiperidine]-4-carboxamide]
- EC50 [1]: 1.1 nM
- EC50 [2]: 719 nM
- EC50 [3]: 327 nM
- EC50 (IL-6): 2990 nM
- EC50 [4]: 77 nM
- EC50 [5, 6]: 188 nM
- EC50 (recombinant GSK3β kinase): 6 nM

SMILES: CO[C@H]1CC[C@@H](C(=O)Nc2cc3cc(-c4nnc(C)s4)ccc3cn2)CC1 [Compound 1001, cis-4-Methoxy-N-(6-(5-methyl-1,3,4-thiadiazol-2-yl)isoquinolin-3-yl) cyclohexane-1-carboxamide]
- EC50 [1]: 7.3 nM
- EC50 [2]: 677 nM
- EC50 [3]: 593 nM
- EC50 (IL-6): > 10000 nM
- EC50 [4]: 65 nM
- EC50 [5, 6]: 3300 nM
- EC50 (recombinant GSK3β kinase): 9 nM

SMILES: CN1CCC(C(=O)Nc2cc3cc(-c4cnn(C)c4CO)ccc3cn2)CC1 [Compound 985, N-(6-(5-(Hydroxymethyl)-1-methyl-1H-pyrazol-4-yl)isoquinolin-3-yl)-1-methylpiperidine-4-carboxamide]
- EC50 [1]: 4.1 nM
- EC50 [2]: 1720 nM
- EC50 [3]: 1160 nM
- EC50 (IL-6): 3890 nM
- EC50 [4]: > 10000 nM
- inhibition at 10 µM [4]: 38%
- EC50 [5, 6]: 3200 nM
- EC50 (recombinant GSK3β kinase): 283 nM

SMILES: CN1CCN(CC(=O)Nc2cc3cc(-c4cnco4)ccc3cn2)CC1 [Compound 983, 2-(4-Methylpiperazin-1-yl)-N-(6-(oxazol-5-yl)isoquinolin-3-yl)acetamide]
- EC50 [1]: 22.3 nM
- EC50 [2]: 4620 nM
- EC50 [3]: 5530 nM
- inhibition at 10 µM (IL-6): 9.1%
- EC50 (IL-6): > 10000 nM
- EC50 [4]: 679 nM
- EC50 [5, 6]: 1500 nM
- EC50 (recombinant GSK3β kinase): 303 nM

SMILES: CC(C)CN1CCC(C(=O)Nc2cc3cc(-c4cnn(C)c4)c(F)cc3cn2)CC1 [Compound 370, N-(7-Fluoro-6-(1-methyl-1H-pyrazol-4-yl)isoquinolin-3-yl)-1-isobutylpiperidine-4-carboxamide]
- EC50 [1]: 3.1 nM
- EC50 [2]: 1250 nM
- EC50 [3]: 608 nM
- EC50 (IL-6): 3710 nM
- EC50 [4]: 379 nM
- EC50 [5, 6]: 256 nM
- EC50 (recombinant GSK3β kinase): 89 nM

SMILES: Cn1cc(-c2ccc3cnc(NC(=O)C4CCNCC4)cc3c2)nn1 [Compound 452, N-(6-(1-Methyl-1H-1,2,3-triazol-4-yl)isoquinolin-3-yl)piperidine-4-carboxamide]
- EC50 [1]: 0.4 nM
- EC50 [2]: 1450 nM
- EC50 [3]: 787 nM
- EC50 (IL-6): 2970 nM
- EC50 [4]: 220 nM
- EC50 [5, 6]: 912 nM
- EC50 (recombinant GSK3β kinase): 7 nM

SMILES: Cn1cc(-c2ccc3cnc(NC(=O)C4CCC(F)(F)CC4)cc3c2)nn1 [Compound 441, 4,4-Difluoro-N-(6-(1-methyl-1H-1,2,3-triazol-4-yl)isoquinolin-3-yl) cyclohexane-1-carboxamide]
- EC50 [1]: 9.1 nM
- EC50 [2]: 5270 nM
- EC50 [3]: 1210 nM
- EC50 (IL-6): 3350 nM
- EC50 [4]: 57 nM
- EC50 [5, 6]: 73 nM
- EC50 (recombinant GSK3β kinase): 5 nM

SMILES: CN1CCC(C(=O)Nc2cc3cc(-c4cnc5n4CCNC5)ccc3cn2)CC1 [Compound 989, 1-Methyl-N-(6-(5,6,7,8-tetrahydroimidazo[1,2-a]pyrazin-3-yl)isoquinolin-3-yl)piperidine-4-carboxamide]
- EC50 [1]: 16.2 nM
- EC50 [2]: > 10000 nM
- inhibition at 10 µM [2]: 36.4%
- EC50 [3]: 4320 nM
- inhibition at 10 µM (IL-6): 12.5%
- EC50 (IL-6): > 10000 nM
- EC50 [4]: 4420 nM
- EC50 [5, 6]: > 10000 nM
- EC50 (recombinant GSK3β kinase): 298 nM

SMILES: Cc1ncc(-c2ccc3cnc(NC(=O)C4(F)CC4)cc3c2)n1C [Compound 376, N-(6-(1,2-Dimethyl-1H-imidazol-5-yl)isoquinolin-3-yl)-1-fluorocyclopropane-1-carboxamide]
- EC50 [1]: 5.5 nM
- EC50 [2]: 4200 nM
- EC50 [3]: 2210 nM
- inhibition at 10 µM (IL-6): 11.8%
- EC50 (IL-6): > 10000 nM
- EC50 [4]: > 10000 nM
- inhibition at 10 µM [4]: 21%
- EC50 [5, 6]: 7900 nM
- EC50 (recombinant GSK3β kinase): 710 nM

SMILES: CC(C)CN1CCC[C@@H](C(=O)Nc2cc3cc(-c4cn(C)nn4)ccc3cn2)C1 [Compound 483, (R)-1-Isobutyl-N-(6-(1-methyl-1H-1,2,3-triazol-4-yl)isoquinolin-3-yl) piperidine-3-carboxamide]
- EC50 [1]: 11.3 nM
- EC50 [2]: 7340 nM
- EC50 [3]: 1870 nM
- EC50 (IL-6): 9620 nM
- EC50 [4]: 315 nM
- EC50 [5, 6]: 611 nM
- EC50 (recombinant GSK3β kinase): 45 nM

SMILES: Cn1ncc(-c2ccc3cnc(NC(=O)C(C)(C)F)cc3c2)c1CN1CCCCC1 [Compound 784, 2-Fluoro-2-methyl-N-(6-(1-methyl-5-(piperidin-1-ylmethyl)-1H-pyrazol-4-yl)isoquinolin-3-yl)propanamide]
- EC50 [1]: 10.8 nM
- EC50 [2]: > 10000 nM
- inhibition at 10 µM [2]: 39.7%
- EC50 [3]: 5880 nM
- inhibition at 10 µM (IL-6): 3.7%
- EC50 (IL-6): > 10000 nM
- EC50 [4]: > 10000 nM
- inhibition at 10 µM [4]: 37.4%
- EC50 [5, 6]: 2200 nM
- EC50 (recombinant GSK3β kinase): 133 nM

SMILES: [2H]C([2H])([2H])n1cc(-c2ccc3cnc(NC(=O)CN4CCCCC4)cc3c2)cn1 [Compound 306, N-(6-(1-(Methyl-d3)-1H-pyrazol-4-yl)isoquinolin-3-yl)-2-(piperidin-1-yl) acetamide]
- EC50 [1]: 7.2 nM
- EC50 [2]: 3200 nM
- EC50 [3]: 3700 nM
- EC50 (IL-6): 2520 nM
- EC50 [4]: 282 nM
- EC50 [5, 6]: 592 nM
- EC50 (recombinant GSK3β kinase): 66 nM

SMILES: Cn1cc(-c2ccc3cnc(NC(=O)C45CCN(CC4)CC5)cc3c2)cn1 [Compound 1071, N-(6-(1-Methyl-1H-pyrazol-4-yl)isoquinolin-3-yl)quinuclidine-4-carboxamide]
- EC50 [1]: 16.5 nM
- EC50 [2]: > 10000 nM
- inhibition at 10 µM [2]: 26.2%
- inhibition at 10 µM ([3]; SW480, read-out: percent inhibition at 10 μM): 43.2%
- EC50 [3]: > 10000 nM
- inhibition at 10 µM (IL-6): 8.8%
- EC50 (IL-6): > 10000 nM
- EC50 [4]: 712 nM
- EC50 ([5]; SH-SY5Y): 6900 nM
- EC50 (recombinant GSK3β kinase): 2730 nM

SMILES: Cn1ncc(-c2ccc3cnc(NC(=O)C4CCC(F)(F)CC4)cc3c2)c1CN1CCCC1 [Compound 299, 4,4-Difluoro-N-(6-(1-methyl-5-(pyrrolidin-1-ylmethyl)-1H-pyrazol-4-yl)isoquinolin-3-yl)cyclohexane-1-carboxamide]
- EC50 [1]: 6.7 nM
- EC50 [2]: 2240 nM
- EC50 [3]: 1530 nM
- EC50 (IL-6): 4530 nM
- EC50 [4]: 1210 nM
- EC50 [5, 6]: 573 nM
- EC50 (recombinant GSK3β kinase): 44 nM

SMILES: Cc1nnc(-c2ccc3cnc(NC(=O)CN4CC5CCC(C4)O5)cc3c2)s1 [Compound 1029, 2-(8-Oxa-3-azabicyclo[3.2.1]octan-3-yl)-N-(6-(5-methyl-1,3,4-thiadiazol-2-yl)isoquinolin-3-yl)acetamide]
- EC50 [1]: 25.7 nM
- EC50 [2]: > 10000 nM
- inhibition at 10 µM [2]: 34.6%
- EC50 [3]: 3340 nM
- inhibition at 10 µM (IL-6): 7.3%
- EC50 (IL-6): > 10000 nM
- EC50 [4]: > 10000 nM
- inhibition at 10 µM [4]: 31.8%
- EC50 [5, 6]: 239 nM
- EC50 (recombinant GSK3β kinase): 18 nM
